A short description of data set [1]: Chemical stability of conjugate 8 in 0.1 N NaOH. The data set is classed as physicochemical. Particulars: room temperature, 24 hours.
The nature of data set [2]: Uptake and release of radiolabelled conjugate 8, tritium levels in long bones. In kind it is in vivo, female Sprauge-Dawley rats. Particulars: rat, 5 mg/kg intravenous. As to the method: Uptake and Release of Conjugate 8: A solution was prepared of carbamate conjugate 8 (specific activity=15.4 mCi/mmol) in PBS. The conjugate was administered intravenously to female Sprauge-Dawley rats at 5 mg/kg. Triplicate sets of rats were euthanized at 1, 7, 14 and 28 days and tritium levels in bone were measured by incineration of the long bones in a biological oxidizer. After an initial 1 day uptake of 9.4%, 5.6% of the initial dose remained after 14 days.

Each structure is given as a SMILES string.

Take `CCOC(=O)CCCCCCN1C(=O)CC[C@@H]1/C=C/[C@@H](OC(=O)NCCCC(O)(P(=O)(O)O)P(=O)(O)O)C(F)(F)c1ccccc1` [Conjugate 8]: the “hydrolysis of the carbamate coupling” value in data set [1] is “not hydrolyzed”. For the same compound, the “hydrolysis of the ethyl ester” value in data set [1] is “essentially quantitatively”. In addition, the “% of Initial 3H Dose Remaining” value in data set [2] (1 day) was found to be 9.4%; in data set [2] (7 days), 8.0%; in data set [2] (14 days, 5 mg/kg) it was 6.2%; in data set [2] (28 days) it was 5.6%.
